The target of one assay is HSA (Homo sapiens, UniProt P02768). As to the kind of experiment: HSA tryptophan fluorescence quenching. The format is binding. How it is done:
For fluorescence measurements, the HSA concentration in Tris–HCl buffer was kept constant in all the samples, while the complex concentration was increased from 0.50 to 50 μM, and quenching of the emission intensity of the HSA tryptophan residues at 305 nm (excitation wavelength 270 nm) was monitored at different temperatures (25°C and 37°C). The experiments were carried out in triplicate and analysed using the classical Stern-Volmer equation. The binding constant (Kb) and number of complexes bound to HSA (n) were determined by plotting the double log graph of the fluorescence data using: log [(F0-F)/F] = log Kb + nlog[Q]. The thermodynamic parameter (ΔH) was calculated from equation: ln (K2/K1) = [(1/T1)-(1/T2)]ΔH/R, where K1 and K2 are the binding constants at temperatures T1 and T2, and R is the gas constant. Furthermore, the change in free energy (ΔG) and entropy (ΔS) were calculated from the following equation: ΔG = -RT lnK = ΔH − TΔS.
Human serum albumin (HSA) is the most abundant protein in the blood and cerebrospinal fluid and plays a fundamental role in the distribution of essential transition metal ions in the human body. Moreover, HSA is an important physiological transporter of the essential metal ions Cu^2+, and Zn^2+ in the bloodstream. […] The fluorescence spectrum is essentially that of tryptophan residue; contribution of tyrosine is relatively minor. In order to determine the protein binding affinity of complexes (1–4), tryptophan emission quenching experiments were carried out by adding the complexes in increasing concentration (0–50 μM) to HSA at two different temperatures and following the decrease in fluorescence intensities (Fig 6D). The results point out a good linearity at the two different temperatures. The binding constants, KSV, calculated from the Stern-Volmer equation are presented on Table 2.

The test system of another assay is MDA-MB-231 cells. Briefly: Colony formation (clonogenic) assay. The format is cell-based, human. The settings on record: 3 h treatment, 10 days. As to the method:
Exponentially growing MDA-MB-231 cells were harvested, counted and seeded (300 cells/plate) into Petri dishes. Cells were allowed to grow at 37°C in 5% CO2 overnight and then, treated with different concentrations of complex (4) for 3 h. After this time, the medium was changed to a fresh medium without any complex. After incubation for additional 10 days the cells were rinsed with PBS, fixed with methanol and acid acetic 3:1 for 5 min and stained with methanol and crystal violet 5% for 15min. Relative survival was calculated from the number of single cells that formed colonies of >50 cells on the tenth day.

The test system of assay [1] is Caspase-3, Caspase-9 and Bcl-2 protein levels in MDA-MB-231 cells. Briefly: Western blotting of apoptosis related proteins. The format is cell-based, human. The settings on record: even at 2.5 μM, 6 h. As to the method: MDA-MB-231 cells (1.0 x 10^6/plate) were incubated for 6 h with (2.5, 5 and 10μM) or without (control) the complex (4) in Petri dishes (6 cm) at 37°C in a humidified incubator with 5% CO2. After incubation, cells were lysed using RIPA buffer (150 mM NaCl; 50 mM Tris-HCl pH 7.4; 50 mM NaF; 2 mM EDTA; 1.0% NP-40; 0.5 mM Na-deoxycholate; 0.1% SDS, pH 8.0) and the content was transferred to a 1.5 mL microtube. Protein concentrations of supernatants were determined using DC Protein Assay kit (Bio-Rad). […] Beta-actin was used as endogenous control. Substrate development was performed using SuperSignal West Dura Extended Substrate reagent (Thermo Scientific). Specific bands were visualized with ChemiDoc MP imager (BioRad Laboratories) and quantified with Image J software, normalized to β-actin.

The test system of assay [2] is Bax, Caspase-3 and Bcl-2 gene expression in MDA-MB-231 cells. As to the kind of experiment: RT-qPCR of apoptosis related genes. The settings on record: 40 μM, 3 h. The format is cell-based, human. How it is done: MDA-MB-231 cells (1.0 x 10^6/plate) were incubated for 3 h with (20 and 40 μM) or without (control) the complex (4) in Petri dishes (6 cm) at 37°C in a humidified incubator with 5% CO2. Total RNA was extracted using Trizol reagent (Invitrogen). cDNAs were synthesized using Enhanced Avian RT First Strand Synthesis kit (Sigma-Aldrich, St. Louis, MO, USA). A Rotor-Gene 6000 real-time rotary analyzer (Corbett Life Science, Australia) was used to amplify both target and internal control templates (1 cycle at 95°C for 5 min and 40 amplification cycles at 95°C for 30 sec, 55°C for 30sec and 72°C for 45sec). In brief, 1 μL of reverse transcribed product template, 5 μL of SYBR Green JumpStart Taq ReadyMix (Sigma-Aldrich) and the gene-specific primer pairs at a final concentration of 500 nmol l^-1 for each primer, made 10 μL of reaction system. Primers used in the assays were: Caspase-3 (Forward: 5’GTG CTA CAA TGC CCC TGG AT3’; Reverse: 5’GCCCATTCATTTATTGCTTTC C3’), Bax (Forward: 5’CAT CCA GGA TCG AGC AGG3’; Reverse: 5’CGA TGC GCT TGA GAC ACT C3), Bcl-2 (Forward: 5’GGT GGG AGG GAG GAA GAA T3’; Reverse: 5’GCA GAG GCA TCA CAT CGA C3’) and β-actin (Forward: 5’GACGGCCAGGTCATCACCATT G3’; Reverse: 5’AGCACTGTGTTGGCGTACAGG 3’). Bax primers (NM_001291428.1) and Bcl-2 (NM_000633.2) were designed with Gene Runner available at http://generunner.net/ (version5.0.63 Beta), except for the primer Caspase-3 (NM_004346.3). For each gene, all samples were amplified simultaneously in duplicate in one assay run. The internal calibrator used as a basis to standardize the results of expression was the control group ΔCts average. Calibration was determined by ΔΔCt = ΔCt (sample) − ΔCt (calibrator). Gene expression was assessed by relative quantification, using the formula 2-ΔΔCt and β-actin as internal control. Data represent three assays in duplicate. A blank with water, primers and SYBR Green instead of template sample was performed.

Chain of HSA (P02768 25-609): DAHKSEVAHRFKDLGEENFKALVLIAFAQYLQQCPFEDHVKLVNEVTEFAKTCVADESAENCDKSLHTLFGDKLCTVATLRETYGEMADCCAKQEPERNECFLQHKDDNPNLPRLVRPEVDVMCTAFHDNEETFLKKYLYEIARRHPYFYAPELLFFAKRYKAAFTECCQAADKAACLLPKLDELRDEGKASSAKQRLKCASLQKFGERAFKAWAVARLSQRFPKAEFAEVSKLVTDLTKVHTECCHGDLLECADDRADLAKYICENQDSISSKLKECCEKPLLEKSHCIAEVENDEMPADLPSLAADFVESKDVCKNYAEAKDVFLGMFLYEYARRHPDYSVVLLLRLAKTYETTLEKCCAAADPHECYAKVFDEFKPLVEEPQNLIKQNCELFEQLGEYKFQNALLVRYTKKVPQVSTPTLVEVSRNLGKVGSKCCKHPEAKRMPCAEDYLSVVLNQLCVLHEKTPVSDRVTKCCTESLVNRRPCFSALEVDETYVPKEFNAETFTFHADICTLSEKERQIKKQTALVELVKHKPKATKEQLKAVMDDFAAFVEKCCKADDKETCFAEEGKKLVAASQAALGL

For the molecule `CC(=O)[O-].F[P-](F)(F)(F)(F)F.[Ru+2].c1ccc(-c2ccccn2)nc1.c1ccc(P(CCCCP(c2ccccc2)c2ccccc2)c2ccccc2)cc1` [Complex (4), [Ru(CH3CO2)(dppb)(bipy)]PF6], on HSA (T 298), the “Kq (HSA)” value was 4.95e+13 M⁻¹ s⁻¹; the “Ksv (HSA)” value was 4.74 ± 0.70 x10^4 M^-1; the “n (number of binding sites, HSA)” value amounted to 1.20. Further, the “ΔS (HSA)” value at HSA (complex-HSA system) was 110.13 J.mol^-1K. Moreover, the “ΔH (HSA)” value at HSA (from binding constants at 298 and 310) was found to be 0.359 kcal/mol. The “effect on colony formation” value with MDA-MB-231 cells (20 μM) is reported as “completely abolished the capacity of breast tumor cells to form colonies”. Also, in the assay with MDA-MB-231 cells (2.5, 5, 10 and 20 μM), the “effect on colony number and size” value was “significantly inhibited the colony number and size”. In addition, in assay [1], the “cleaved Caspase-3 protein levels” value is reported as “increased” and the “cleaved Caspase-9 protein levels” value is on record as “increased”. Further, in assay [2], the Bax gene expression entry is reported as “upregulated”, the Bcl-2 gene expression result was “did not affect” and the Caspase-3 gene expression result is reported as “upregulated”.
